Reference: patent US12685313B2, “Agricultural composition comprising kasugamycin” (UPL Corporation Limited, priority 2021, dated 2026)

Columns and labels:
Fusarium oxysporum = assay: In vitro control of Fusarium oxysporum on PDA medium; type: cell-based; conditions: Fusarium oxysporum from potato, dose 1 L/400 L water, 28-30° C., dark, 7 days
Description: A strain of Fusarium oxysporum isolated from potato was cultivated in a solid potato dextrose agar (PDA) medium. The efficacy of the mixture of kasugamycin and laminarin in a 1:1 ratio, and each component individually was tested.
(§1) The in vitro assessment of the products effectiveness was carried out as per the treatments discussed in Table 2. Accordingly, the components in each treatment were dissolved in the PDA culture medium at the dose indicated above. The mixture was homogenized and poured into sterile petri dishes. Explants of 5 mm diameter of the fungus strain Fusarium oxysporum were placed on the petri dishes with PDA. The dishes were incubated inverted, in dark conditions at a temperature of 28-30° C. The evaluation of the inhibition of the fungus was carried out 7 days later.
This effectiveness of all treatments as measured by percent reduction in the Fusarium oxysporum growth, was also evaluated according to Colby's equation as below. […]
If the actual/observed anti-phytopathogenic efficacy of the kasugamycin and laminarin combination against Fusarium oxysporum exceeds the calculated value, then the activity of the combination is super additive, i.e. a synergistic effect exists. In this case, the efficacy which was actually observed must be greater than the value for the expected efficacy (E) calculated from the abovementioned formula.

Alternaria alternata = assay: In vitro control of Alternaria alternata on PDA medium; type: cell-based; conditions: Alternaria alternata from potato, dose 1 L/400 L water, 28-30° C., dark, 7 days
Description: A strain of Alternaria alternata isolated from potato was cultivated in a solid potato dextrose agar (PDA) medium. The efficacy of the mixture of kasugamycin and laminarin in a 1:1 ratio, and each component individually was tested.
as §1, with “4.” for “2.”, “in” for “in the”, “Alternaria alternata” for “the fungus strain Fusarium oxysporum”, “inverted” for “inverted,”
The present inventors have calculated the Colby value of the synergistic combination as discussed in Example 4 above.

Row | Compound | % Observed control (Fusarium oxysporum) [%] | % Observed control (Alternaria alternata) [%]
1 | C[C@H]1O[C@H](O[C@H]2[C@H](O)[C@@H](O)[C@@H](O)[C@H](O)[C@@H]2O)[C@@H](N)C[C@@H]1NC(=N)C(=O)O [Kasugamycin] | 48 | 54
2 | Laminarin | 11 | 30
